# Reference: PubChem BioAssay (NCI)
#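 Briefly, cells in 96-well plates were exposed to five compound concentrations for 48 h, and endpoints were estimated by linear interpolation. Abbreviation: GI50, concentration required for 50% inhibition of growth. TGI is the concentration that stops growth completely.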
# Columns and labels:
# Test in all cases: DTP human tumour cell line panel, 48 h
# HCT-15 colon = test system: HCT-15 colon
# HOP-62 NSCLC = test system: HOP-62 NSCLC
# IGROV1 ovarian = test system: IGROV1 ovarian
# NCI-H522 lung = test system: NCI-H522 lung
# RXF 393 renal = test system: RXF 393 renal
# SNB-75 CNS = test system: SNB-75 CNS
# DU-145 prostate = test system: DU-145 prostate
# MDA-MB-231 breast = test system: MDA-MB-231 breast
# UACC-257 melanoma = test system: UACC-257 melanoma
# T-47D breast = test system: T-47D breast
SMILES,TGI (HCT-15 colon) [µM],TGI (HOP-62 NSCLC) [µM],TGI (IGROV1 ovarian) [µM],TGI (NCI-H522 lung) [µM],TGI (RXF 393 renal) [µM],TGI (SNB-75 CNS) [µM],GI50 (DU-145 prostate) [µM],TGI (DU-145 prostate) [µM],GI50 (HCT-15 colon) [µM],GI50 (HOP-62 NSCLC) [µM],GI50 (MDA-MB-231 breast) [µM],TGI (MDA-MB-231 breast) [µM],GI50 (SNB-75 CNS) [µM],GI50 (UACC-257 melanoma) [µM],TGI (UACC-257 melanoma) [µM],GI50 (IGROV1 ovarian) [µM],GI50 (NCI-H522 lung) [µM],GI50 (T-47D breast) [µM],TGI (T-47D breast) [µM],GI50 (RXF 393 renal) [µM]
COc1nc2c(c(O)c(C)c(=O)n2OC2OC(COC(C)=O)C(OC(C)=O)C(OC(C)=O)C2OC(C)=O)c(=O)n1C (centres undefined),> 100,> 100,> 100,> 100,> 100,> 100,,,,,,,,,,,,,,
c1cnc2[nH]cc(-c3csc(-c4cn(CCCN5CCCCC5)c5ccccc45)n3)c2c1,3.18,3.02,,,,2.84,1.74,3.16,1.72,1.47,1.63,3.11,1.21,1.97,3.73,,,,,
CC[P+]1(CC)CCCC1,> 100,> 100,> 100,,> 100,> 100,,,,,,,,,> 100,,,,,
CC1=C(C(=O)CC(=O)C(=O)NC2C3CC4CC(C3)CC2C4)Sc2ccccc2N1 (centres undefined),> 100,> 100,> 100,> 100,> 100,> 100,,,,,,,,,> 100,,,,,
C[C@@]12CCCC(=O)N1[C@@H](CO)C(c1ccccc1)O2 (some centres undefined),> 100,> 100,> 100,,> 100,> 100,,,,,,,,,> 100,,,,,
COc1ccc(C(=O)C[C@]2(O)C(=O)Nc3c(Cl)ccc(Cl)c32)cc1,> 100,> 100,> 100,,,0.972,1.87,> 55.7,0.35,1.06,0.801,> 100,0.199,50.3,> 100,0.531,0.317,0.498,> 100,
Cc1nnc(N=Nc2c(O)[nH]c3ccccc23)n1N,> 100,> 100,> 100,> 100,> 100,> 100,,,,,,,,,> 100,,,,,
COc1ccc2c(c1)nc1n2C(c2ccc(F)cc2)SC1 (centres undefined),42.8,> 100,99.4,66.3,> 100,> 100,15.2,> 100,19.7,79.7,,,25.6,28.7,> 100,26.5,18.1,14.4,51,82.9
NC(=O)c1c[se]c(C2OC(COP(=O)(O)CP(=O)(O)OCC3OC(n4cnc5c(N)ncnc54)C(O)C3O)C(O)C2O)n1 (centres undefined),,> 100,> 100,> 100,> 100,> 100,,,,,,,,,> 100,,,,,
COC(=O)c1cc2c3c(ccc2[nH]1)N(C(=O)c1cc2c4c(ccc2[nH]1)N(C(=O)c1cc2c5c(ccc2[nH]1)N(C(N)=O)CC5)CC4)CC3,> 100,7.83,20.5,,12.5,,,,,,,,,,> 100,,,,,
COc1ccc(C2NCCc3c2[nH]c2ccccc32)cc1 (centres undefined),> 100,> 100,> 100,> 100,> 100,> 100,,,,,,,,,> 100,,,,,
O=C1C(c2ccccc2)=C(c2ccccc2)[C@H](c2ccccc2)[C@]1(Cc1nnn(-c2ccc([N+](=O)[O-])cc2)c1N1CCOCC1)c1ccccc1,> 37.5,> 37.5,> 37.5,,> 37.5,> 37.5,,,,,,,,,> 37.5,,,,,
COc1ccc(CC2=NCCc3cc(OC)c(OC)cc32)cc1Br,,> 100,,86.6,90.6,,,,,,,,,,82.6,,,,,
COc1cc(O)c(C(C)=O)c(O)c1,> 100,> 100,> 100,> 100,> 100,> 100,,> 100,,,,,,,> 100,,,,> 100,
CC(=O)[CH-]C(=O)c1ccccc1.CC(=O)[CH-]C(=O)c1ccccc1.[CH2-]CCC.[CH2-]CCC.[Sn+4],2.87,,3.28,0.327,0.784,1.18,,,1.29,,,,0.352,0.343,1.69,1.57,0.157,,,0.258
COC(=O)C1(F)C(=O)NC(=O)NC1OC (centres undefined),> 100,> 100,> 100,> 100,,> 100,,,,,,,,,> 100,,,,,
C/C(=N\n1c(N)c(C#N)c(-c2ccc(Cl)cc2)c(C#N)c1=O)c1ccncc1,> 100,48.8,> 100,,,26.6,11.1,44.7,58.2,16.9,12.6,44.2,6.11,13.5,95.3,5.02,,7.81,85.3,
CCOCNc1ccc(N2C(=O)/C(=C/c3ccc(N(CC)CC)cc3)N=C2c2ccccc2)cc1,> 100,35.3,,,17.4,81.2,> 100,> 100,1.06,12.6,13,49.3,16.2,> 100,> 100,,,84,> 100,4.23
CCCCCCCCCC(=O)Oc1cccc2onc(C)c12,> 100,> 100,> 100,> 100,> 100,> 100,,,,,,,,,> 100,,,,,
C=C(CNCCc1ccc(O)cc1)[C@@H]1CC[C@]2(CO)CC[C@]3(C)[C@H](CC[C@@H]4[C@@]5(C)CCC(N)C(C)(C)[C@@H]5CC[C@]43C)[C@@H]12 (some centres undefined),,3.36,,3.42,2.36,2.49,1.63,2.98,,1.73,1.11,2.38,1.24,0.195,0.517,,1.76,1.64,3.58,1.08
O=[N+]([O-])C1C2C=CC(C2)[C@H]1c1ccc(Cl)cc1Cl (some centres undefined),> 100,,,,74.1,> 100,,,,,,,,,99,,,,,
NS(=O)(=O)c1ccc(NC(=O)c2cccn3c(=O)c4ccccc4nc23)cc1,,> 100,> 100,> 100,> 100,> 100,,,,,,,,,> 100,,,,,
COc1cc2cccc(N=Cc3c(Br)ccc(OC)c3OC(C)C)c2cc1OC,,> 100,> 100,> 100,,89.3,,,,,,,,,> 100,,,,,
